# Experimental data as given in patent publication US20240058265A1, “TREATMENT OF OCULAR DISEASES USING ENDOTHELIN RECEPTOR ANTAGONISTS” (Perfuse Therapeutics, Inc., priority 2021, published 2024).
# What was measured:
# ETA receptor = molecular target: T1, ETA receptor (Homo sapiens, UniProt P25101); assay: Functional potency for ETA receptor; assay type: biochemical
# T1 sequence (P25101 21-427): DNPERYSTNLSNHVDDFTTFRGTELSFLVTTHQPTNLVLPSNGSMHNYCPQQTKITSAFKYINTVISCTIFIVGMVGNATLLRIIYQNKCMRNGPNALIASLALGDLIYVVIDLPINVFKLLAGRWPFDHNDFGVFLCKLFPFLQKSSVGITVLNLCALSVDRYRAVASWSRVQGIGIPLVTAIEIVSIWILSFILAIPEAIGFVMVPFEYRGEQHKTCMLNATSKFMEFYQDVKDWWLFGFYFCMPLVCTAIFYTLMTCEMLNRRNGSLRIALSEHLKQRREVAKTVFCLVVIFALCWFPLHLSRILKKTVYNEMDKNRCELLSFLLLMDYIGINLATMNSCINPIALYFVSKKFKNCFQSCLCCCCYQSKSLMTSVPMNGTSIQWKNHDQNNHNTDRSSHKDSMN
# Description: In the above table, the physicochemical data, e.g., solubility, were obtained following standard protocols known in the field (see, e.g., Reis et al., Mini Rev Med Chem., 2010, 10(11):1071-6; Avdeef et al., Expert Opin Drug Metab Toxicol., 2005, 1(2):325-42; Bharate et al., Comb Chem High Throughput Screen., 2016, 19(6):461-9; and Jain et al., J Pharm Biomed Anal., 2013, 86:11-35.); and the biochemical data, i.e., potency for ETA/ETB, were obtained following the protocols known in the field (see, e.g., Kirkby et al., Br J Pharmacol., 2008, 153(6):1105-19; and Maguire et al., Br J Pharmacol., 2014, 171(24):5555-72.).
# [1] = Pharmacokinetics after topical or oral administration in the rat; assay type: in vivo, Brown Norway rats
# Method: After the administrations, the animals (N=2) were euthanized at different time points (e.g. 4 and 8 hours) and tissues were collected for analysis. List of tissues collected include plasma, retina/retinal pigment epithelium (RPE)/choroid, vitreous humor and aqueous humor.
# elevated IOP rat eye = assay: Morrison's rat model of glaucoma (RGC counts, PERG); assay type: in vivo, Brown Norway rats; settings: topical eye drops 100 μg per dose, five days a week, four weeks
# Description: Adult male and female retired breeder Brown Norway rats (approximate age groups of 8 to 11 months) were obtained from Envigo (Indianapolis, IN). Baseline IOP measurements and pattern electroretinogram (PERG) amplitudes were collected prior to the surgery for elevation of IOP (to ensure that the IOP and PERG amplitudes were in the expected range of values). IOP was elevated in one eye (left eye) of the rats, while the corresponding right eyes served as contralateral controls. The Morrison method to elevate IOP in rats was carried out by injection of 50 μL of hypertonic saline through the episcleral veins to sclerose the trabecular meshwork. IOP was measured twice a week throughout the entire duration of the experiment. […] After detecting an elevation of IOP for two consecutive days, topical administration of eye drops ([…] (100 μg,) per dose of the tested compounds in the IOP elevated eye) was commenced and carried out for five days a week for a total of four weeks. In the 4th week of treatment, PERG analysis was carried out and rats were sacrificed by an overdose of pentobarbital (fatal-Plus). Aqueous humor was collected from the rat eyes, frozen and shipped for analysis. Retinal flat mounts were prepared, immunostained with the RGC marker, Brn3a antibody and surviving RG-Cs were counted in two eccentricities (central and peripheral).
# For this study, the Morrison's model was used to induce ocular hypertension in adult male retired breeder Brown Norway rats as previously described by. Morrison et al., (Morrison J C, Moore C G, Deppmeier L M, Gold B G, Meshul C K, Johnson E C. A rat model of chronic pressure-induced optic nerve damage. Exp Eye Res. 1997;64(1):85-96).
# The immunostained retinal flat mounts were obtained to measure the retinal ganglion cell (RGC) counts. To obtain immunostained retinal flat mounts, the animals were euthanized after the treatments and then their eyes were enucleated. The eye cups were fixed overnight at 4° C. in 4% paraformaldehyde (PFA) and retinal flat mounts were prepared for collecting images. The retinal ganglion cell (RGC) counting was conducted using the images of immunostained retinal flat mounts. The images were uploaded to ImageJ, a photo editor designed for biology research (Rasband, 1997-2018) and the labeled retinal ganglion cells were counted manually in two eccentricities (central and peripheral).
# Pattern ERG (PERG) was used to assess the RGC function. […] Briefly, PERG signals were acquired from a DTL-plus electrode placed on the lower part of the corneal surface and the PERG waves were analyzed using the EMWIN software (LKC). The difference between the amplitude of the major positive (P1) and negative (N2) waves were calculated to decipher the PERG amplitude.
structure (smiles),measurement,setting,value
"Cc1onc(NS(=O)(=O)c2ccccc2-c2ccc(-c3ncco3)cc2CN(C)C(=O)CC(C)(C)C)c1C [Edonentan, N-[[2′-[[(4,5-dimethyl-3-isoxazolyl)amino]sulfonyl]-4-(2-oxazolyl)[1,1′-biphenyl]-2-yl]methyl]-N,3,3-trimethylbutanamide]",Functional potency for ETA and ETB receptors (rating),ETA receptor,High potency
same,Specificity ETA vs ETB (rating),ETA receptor,High specificity
same,Detection in aqueous humor after oral administration,"[1]; oral, 17 mg/kg",detectable
same,Detection in retina/RPE/choroid and vitreous humor after oral administration,"[1]; oral, 1.7 and 17 mg/kg",detectable
same,"Detection in retina/RPE/choroid, aqueous humor and vitreous humor","[1]; topical eye drop 100 μg, 4 and 8 hours",detected
same,RGC function (PERG),elevated IOP rat eye,maintained RGC function
same,"RGC loss (RGC counts, retinal flat mounts)",elevated IOP rat eye,prevented RGC loss
